Measured values published in ChEMBL document CHEMBL4819087, “Identification and optimization of 3-bromo-N'-(4-hydroxybenzylidene)-4-methylbenzohydrazide derivatives as mTOR inhibitors that induce autophagic cell death and apoptosis in triple-negative breast cancer” (Eur J Med Chem, 2021).
Activity calls are given as the source filed them. No cut-off for these calls is given here.

Tests used:
[1] = test system: MDA-MB-231; test: Induction of autophagy in human MDA-MB-231 cells assessed as MDC positive ratio at 1 uM incubated for 6 hrs by MDC staining based flow cytometry analysis; type: functional
[2] = target: T1, Serine/threonine-protein kinase mTOR (Homo sapiens, UniProt P42345); test: Inhibition of mTOR in human MDA-MB-231 cells assessed as reduction in total 4EBP1 protein level at 0.5 to 2 uM after 24 hrs by Western blot analysis; type: cell-based; conditions: dose 0.5-2 µM
[3] = target: T1, Serine/threonine-protein kinase mTOR; test: Inhibition of mTOR in human MDA-MB-231 cells assessed as reduction in P70S6 protein level at 0.5 to 2 uM after 24 hrs by Western blot analysis; type: cell-based; conditions: dose 0.5-2 µM
[4] = target: T1, Serine/threonine-protein kinase mTOR; test: Inhibition of mTOR in human MDA-MB-231 cells assessed as reduction in p-4EBP1(Thr37/46) protein level at 0.5 to 2 uM after 24 hrs by Western blot analysis; type: cell-based; conditions: dose 0.5-2 µM
[5] = target: T1, Serine/threonine-protein kinase mTOR; test: Inhibition of mTOR in human MDA-MB-468 cells assessed as reduction in p-AKT(Ser473) protein level at 0.5 to 2 uM after 24 hrs by Western blot analysis; type: cell-based; conditions: dose 0.5-2 µM
[6] = test system: MDA-MB-468; test: Antiproliferative activity against human MDA-MB-468 cells measured after 24 hrs by Hoechst 33258 dye based fluorescence microscopic analysis; type: functional, cell-based; conditions: dose 2.5-10 µM
[7] = test system: MDA-MB-231; test: Inhibition of colony formation in human MDA-MB-231 cells measured after 14 days by crystal violet staining based assay; type: functional, cell-based; conditions: dose 5-10 µM, time 14.0 day
[8] = test system: MDA-MB-231; test: Induction of apoptosis in human MDA-MB-231 cells assessed as early apoptotic cells at 2.5 uM after 24 hrs by AnnexinV-FITC/PI staining based flow cytometry analysis (reference value: 2.63%); type: functional
[9] = test system: MDA-MB-231; test: Induction of apoptosis in human MDA-MB-231 cells assessed as late apoptotic cells at 5 uM after 24 hrs by AnnexinV-FITC/PI staining based flow cytometry analysis (reference value: 0.84%); type: functional
[10] = test system: MDA-MB-231; test: Induction of apoptosis in human MDA-MB-231 cells assessed as necrotic cells at 5 uM after 24 hrs by AnnexinV-FITC/PI staining based flow cytometry analysis (reference value: 0.083%); type: functional
[11] = test system: MDA-MB-231; test: Induction of apoptosis in human MDA-MB-231 cells assessed as viable cells at 10 uM after 24 hrs by AnnexinV-FITC/PI staining based flow cytometry analysis (reference value: 95.6 to 96.45%); type: functional; conditions: read-out: Activity
[12] = test system: MDA-MB-231; test: Induction of apoptosis in human MDA-MB-231 cells assessed as late apoptotic cells at 10 uM after 24 hrs by AnnexinV-FITC/PI staining based flow cytometry analysis (reference value: 0.84 to 1.59%); type: functional
[13] = test system: MDA-MB-231; test: Induction of apoptosis in human MDA-MB-231 cells assessed as necrotic cells at 10 uM after 24 hrs by AnnexinV-FITC/PI staining based flow cytometry analysis (reference value: 0.083%); type: functional
[14] = test system: MDA-MB-468; test: Induction of apoptosis in human MDA-MB-468 cells assessed as early apoptic cells at 2.5 uM after 24 hrs by AnnexinV-FITC/PI staining based flow cytometry analysis (reference value: 0.51%); type: functional
[15] = test system: MDA-MB-468; test: Induction of apoptosis in human MDA-MB-468 cells assessed as late apoptic cells at 2.5 uM after 24 hrs by AnnexinV-FITC/PI staining based flow cytometry analysis (reference value: 2.84%); type: functional
[16] = test system: MDA-MB-468; test: Induction of apoptosis in human MDA-MB-468 cells assessed as viable cells at 5 uM after 24 hrs by AnnexinV-FITC/PI staining based flow cytometry analysis (reference value: 95.1%); type: functional; conditions: read-out: Activity
[17] = test system: MDA-MB-468; test: Induction of apoptosis in human MDA-MB-468 cells assessed as late apoptic cells at 5 uM after 24 hrs by AnnexinV-FITC/PI staining based flow cytometry analysis (reference value: 2.84%); type: functional
[18] = test system: MDA-MB-468; test: Induction of apoptosis in human MDA-MB-468 cells assessed as necrotic cells at 10 uM after 24 hrs by AnnexinV-FITC/PI staining based flow cytometry analysis (reference value: 1.56%); type: functional
[19] = test system: MDA-MB-468; test: Induction of apoptosis in human MDA-MB-468 cells assessed as increase in cleaved caspase 3 level at 2.5 to 10 uM incubated for 24 hrs by western blot analysis; type: functional, cell-based; conditions: dose 2.5-10 µM
[20] = test system: MDA-MB-231; test: Induction of apoptosis in human MDA-MB-231 cells assessed as increase in Bax level at 2.5 to 10 uM incubated for 24 hrs by western blot analysis; type: functional, cell-based; conditions: dose 2.5-10 µM
[21] = test system: MDA-MB-468; test: Induction of apoptosis in human MDA-MB-468 cells assessed as increase in Bax level at 2.5 to 10 uM incubated for 24 hrs by western blot analysis; type: functional, cell-based; conditions: dose 2.5-10 µM
[22] = test system: MDA-MB-231; test: Induction of apoptosis in human MDA-MB-231 cells assessed as decrease in Bcl2 level at 2.5 to 10 uM incubated for 24 hrs by western blot analysis; type: functional, cell-based; conditions: dose 2.5-10 µM
[23] = test system: MDA-MB-468; test: Induction of apoptosis in human MDA-MB-468 cells assessed as decrease in Bcl2 level at 2.5 to 10 uM incubated for 24 hrs by western blot analysis; type: functional, cell-based; conditions: dose 2.5-10 µM
[24] = test system: MDA-MB-231; test: Induction of autophagy in human MDA-MB-231 cells assessed as reduction in p62 protein level at 2.5 to 10 uM incubated for 24 hrs by Western blot analysis; type: functional, cell-based; conditions: dose 2.5-10 µM
[25] = test system: MDA-MB-231; test: Induction of autophagy in human MDA-MB-231 cells assessed as increase in Beclin-1 protein level at 2.5 to 10 uM incubated for 24 hrs by Western blot analysis; type: functional, cell-based; conditions: dose 2.5-10 µM
[26] = test system: MDA-MB-468; test: Induction of autophagy in human MDA-MB-468 cells assessed as reduction in p62 protein level at 2.5 to 10 uM incubated for 24 hrs by Western blot analysis; type: functional, cell-based; conditions: dose 2.5-10 µM
[27] = test system: MDA-MB-468; test: Induction of autophagy in human MDA-MB-468 cells assessed as increase in LC3-II protein level at 2.5 to 10 uM incubated for 24 hrs by Western blot analysis; type: functional, cell-based; conditions: dose 2.5-10 µM
[28] = test system: MDA-MB-468; test: Induction of autophagy in human MDA-MB-468 cells assessed as increase in Beclin-1 protein level at 2.5 to 10 uM incubated for 24 hrs by Western blot analysis; type: functional, cell-based; conditions: dose 2.5-10 µM
[29] = test system: MDA-MB-468; test: Inhibition of colony formation in human MDA-MB-468 cells at 10 uM incubated for 14 days in presence of autophagy inhibitor, 3-methyladenine by crystal violet staining based analysis; type: functional, cell-based; conditions: time 14.0 day
[30] = test system: MDA-MB-231; test: Induction of apoptosis in human MDA-MB-231 cells assessed as late apoptotic cells at 10 uM pretreated with autophagy inhibitor, 3-methyladenine for 1 hr followed by incubation with compound and measured after 24 hrs by Annexin V-FITC/propidium iodide staining based flow cytometry (reference value: 3.11%); type: functional; design: scale not given: the % may be the effect or the level left
[31] = test system: MDA-MB-468; test: Induction of apoptosis in human MDA-MB-468 cells assessed as viable cells at 10 uM pretreated with autophagy inhibitor, 3-methyladenine for 1 hr followed by incubation with compound and measured after 24 hrs by Annexin V-FITC/propidium iodide staining based flow cytometry (reference value: 93.6%); type: functional; conditions: read-out: Activity
[32] = test system: MDA-MB-231; test: cells; conditions: Homo sapiens, MDA-MB-231, 24 h
Description: Antiproliferative activity against human MDA-MB-231 cells assessed as reduction in cell viability incubated for 24 hrs by MTT assay

[33] = test system: MDA-MB-468; test: cells; conditions: Homo sapiens, MDA-MB-468, 24 h
Description: Antiproliferative activity against human MDA-MB-468 cells assessed as reduction in cell viability incubated for 24 hrs by MTT assay

C/C(=N\NC(=O)c1cccc(Br)c1)c1ccc(C(=O)Nc2nc3ccccc3[nH]2)cc1
Activity [1]: 25.67% | inhibition [2]: Active | inhibition [3]: Active | inhibition [4]: Active | inhibition [5]: Active | Activity [6]: Dose-Dependent Effect | inhibition [7]: Dose-Dependent Effect | Activity [8]: 6.84% | Activity [9]: 2.3% | Activity [10]: 0.099% | viability at 10 µM [11]: 70.2% | Activity [12]: 5.71% | Activity [13]: 0.15% | Activity [14]: 3.35% | Activity [15]: 4.96% | viability at 5 µM [16]: 86.2% | Activity [17]: 5.16% | Activity [18]: 1.24% | Activity [19]: Active | Activity [20]: Active | Activity [21]: Active | Activity [22]: Active | Activity [23]: Active | Activity [24]: Active | Activity [25]: Active | Activity [26]: Active | Activity [27]: Active | Activity [28]: Active | inhibition [29]: Active | Activity [30]: 6.8% | viability at 10 µM [31]: 81% | IC50 [32]: 3.38 µM | IC50 [33]: 4.3 µM
